Results from patent US10434100B2, “Protein phosphatase 2A inhibitors for treating myelodysplastic syndromes” (priority 2014, dated 2019).

Columns and labels:
non-del (5q) MDS = settings: cited from earlier work
del(5q) MDS [1] = settings: cited from earlier work
[2] = test system: MDS that is resistant to lenalidomide; test: Additional studies of LB-100 efficacy in lenalidomide-resistant MDS; format: in vivo; settings: LB-100 or LB-100 in combination with lenalidomide
Experimental: (§1) Additional studies, similar to the aforementioned Phase I design, are conducted to evaluate the efficacy of LB-100, alone or in combination with lenalidomide, in patients with del(5q) MDS or non-del(5q) MDS.

del(5q) patient BM MNCs = test: Apoptosis in patient cells, del(5q); format: cell-based
Experimental: FIG. 6 is a bar graph showing percentage of primary BM MNCs from a Del(5q) patient undergoing apoptosis after treatment with 0.1 μM, 1.0 μM, or 10 μM lenalidomide (grey) or 0.1 μM, 1.0 μM, or 10 μM LB-100 (black), compared to a control.

Namalwa cells [3] = test: MTT assay, proliferation of Namalwa cells; format: cell-based; settings: 72 hours, versus control (FIGS. 7B and 7C)
Experimental: (§2) FIG. 7A is a graph showing proliferation of HL60 cells 72 hours after treatment with 0.001 μM, 0.01 μM, 0.1 μM, 1.0 μM, 10 μM, or 100 μM LB-100 (grey) or 0.001 μM, 0.01 μM, 0.1 μM, 1.0 μM, 10 μM, or 100 μM lenalidomide (black), compared to control or vehicle. FIGS. 7B to 7C are graphs showing proliferation of Namalwa cells 72 hours after treatment with 0.001 μM, 0.01 μM, 0.1 μM, 1.0 μM, 10 μM, or 100 μM LB-100 (♦), 0.001 μM, 0.01 μM, 0.1 μM, 1.0 μM, 10 μM, or 100 μM lenalidomide (▪), or 0.001 μM, 0.01 μM, 0.1 μM, 1.0 μM, 10 μM, or 100 μM, cantharidin (▴), compared to control or vehicle.
(§3) HL60 cells and U937 cells were compared (FIGS. 8A and 8B).

non-del(5q) MDS = test: Additional studies of LB-100 efficacy in non-del(5q) MDS; format: in vivo
Experimental: as §1
An amount of LB-100 is administered to a subject afflicted with non-del(5q) MDS. […] An amount of LB-100 in combination with lenalidomide is administered to a subject afflicted with non-del(5q) MDS.

Namalwa cells [4] = test: Apoptosis in cell lines (Namalwa), flow cytometry; format: cell-based; settings: 10 μM, dissolved in MSG
Experimental: FIG. 3 is a bar graph showing percentage of Namalwa cells undergoing apoptosis after treatment with 0.1 μM, 1.0 μM or 10 μM LB-100 dissolved in DMSO (grey) or MSG (black) compared to control and vehicle.
FIGS. 4A to 4D are a series of flow cytometry plots showing percentage of Namalwa cells undergoing apoptosis after treatment with control (FIG. 4A), 0.1 μM (FIG. 4B), 1.0 μM (FIG. 4C), or 10 μM (FIG. 4D) LB-100.

[5] = test system: Non-del(5q) patient BM MNCs; test: Apoptosis in patient cells, non-del(5q); format: cell-based; settings: FIG. 5
Namalwa cells [6] = test: Cell cycle analysis of Namalwa cells treated with LB-100; format: cell-based
Experimental: FIG. 1 is a bar graph showing percent of Namalwa cells in G1 arrest 24 hours after treatment with 0.1 μM, 1.0 μM or 10 μM LB-100 dissolved in DMSO (grey) or MSG (black) compared to control and vehicle.
FIG. 2 is a bar graph showing percent of Namalwa cells in G1 arrest 24 hours after treatment with 0.1 μM, 1.0 μM or 10 μM LB-100 compared to control.
Namalwa cells were treated with LB-100 dissolved in DMSO or MSG.

del(5q) MDS [7] = test: Additional studies of LB-100 efficacy in del(5q) MDS; format: in vivo
Experimental: as §1
An amount of LB-100 is administered to a subject afflicted with del(5q) MDS. […] An amount of LB-100 in combination with lenalidomide is administered to a subject afflicted with del(5q) MDS.

HL60 cells = test: MTT assay, proliferation of HL60 cells; format: cell-based; settings: 72 hours, versus lenalidomide, significant difference at 1 μM (FIG. 7A)
Experimental: as §2, §3

protein phosphatase 2A = protein phosphatase 2A (Homo sapiens, UniProt P67775); settings: cited from earlier work
protein phosphatase 2A, sequence (P67775 whole entry): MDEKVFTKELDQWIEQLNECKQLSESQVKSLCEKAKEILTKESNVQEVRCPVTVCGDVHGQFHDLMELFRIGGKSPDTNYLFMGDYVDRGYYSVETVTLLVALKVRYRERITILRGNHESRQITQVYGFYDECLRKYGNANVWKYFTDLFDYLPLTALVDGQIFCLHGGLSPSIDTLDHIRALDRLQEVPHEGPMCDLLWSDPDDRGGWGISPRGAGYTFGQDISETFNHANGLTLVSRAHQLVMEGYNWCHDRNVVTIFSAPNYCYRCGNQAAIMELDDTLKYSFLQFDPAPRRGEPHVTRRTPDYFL

[8] = LB-100 in combination with lenalidomide

In the case of Nc1cccc2c1CN(C1CCC(=O)NC1=O)C2=O (stereo not drawn) [Lenalidomide, lenalidomide], the “transfusion independence (TI), share of patients” value (non-del (5q) MDS) is given as 26%, the “transfusion independence (TI), share of patients” value (del(5q) MDS [1]; lower risk MDS patients with del(5q)) is given as 67% and the “median duration of response” value (del(5q) MDS [1]; patients with del5q MDS) is given as 2.5 years.

With CN1CCN(C(=O)C2C(C(=O)O)[C@H]3CC[C@@H]2O3)CC1 (stereo partly drawn) [LB100] the “Efficacy (in words)” value [2] was “effective to treat the MDS”, the “Apoptosis (in words)” value (del(5q) patient BM MNCs; 1 μM) was “mild increase in apoptosis” and the “Cytotoxicity compared with lenalidomide (in words)” value (del(5q) patient BM MNCs; 10 μM) was “more cytotoxic than lenalidomide”. The “Apoptosis (in words)” value (del(5q) patient BM MNCs; 0.1, 1.0, 10 μM (FIG. 6)) was “induced apoptosis in a dose dependent fashion”, the “Proliferation (in words)” value (Namalwa cells [3]) was “significant decrease in proliferation in comparison to control” and the “Efficacy (in words)” value (non-del(5q) MDS; LB-100 alone) was “effective to treat the non-del(5q) MDS”. The “Efficacy (in words)” value (non-del(5q) MDS; [8]) was “effective to treat the non-del(5q) MDS”, the “Apoptosis (in words)” value (Namalwa cells [4]) was “led to apoptosis at 10 μM” and the “Apoptosis (in words)” value [5] was “did not lead to apoptosis”. The “G1 arrest, dose dependence (in words)” value (Namalwa cells [6]; Table 2, FIG. 2) was “led to G1 arrest in a dose-dependent fashion”, the “G1 arrest (in words)” value (Namalwa cells [6]; dissolved in DMSO or MSG (Table 1, FIG. 1)) was “led to G1 arrest at 1 and 10 μM in MSG and at 10 μM in DMSO” and the “Efficacy (in words)” value (del(5q) MDS [7]; LB-100 alone) was “effective to treat the del(5q) MDS”. The “Efficacy (in words)” value (del(5q) MDS [7]; [8]) was “effective to treat the del(5q) MDS” and the “Proliferation (in words)” value (HL60 cells) was “significant decreased proliferation in comparison to treatment with lenalidomide”.

In the case of C=C1[C@@H](O)[C@@H]2O[C@]3(CC[C@H](/C=C/[C@@H](C)[C@@H]4CC(C)=C[C@@]5(O[C@H](C[C@@](C)(O)C(=O)O)CC[C@H]5O)O4)O3)CC[C@H]2O[C@@H]1[C@@H](O)C[C@H](C)[C@H]1O[C@@]2(CCCCO2)CC[C@H]1C [Okadaic acid, 9,10-Deepithio-9,10-didehydroacanthifolicin], the “Selectivity over PP2B, PP2C and other phosphatases (in words)” value (protein phosphatase 2A) is listed as “highly selective over PP2B, PP2C and a range of other phosphatases”.
